Results: the NIST ThermoML archive (doi:10.1016/j.tca.2011.01.019)
Where “and” joins values, the source holds several entries; their conditions need not be identical. Identical values can stand only once.

Columns and labels:
[1] = 101 kPa, Liquid; for speed of sound: Linear variable-path acoustic interferometer; for mass density: Pycnometric method
[2] = xn = mol fraction of the nth substance listed; details: 101 kPa, Liquid; for speed of sound: Linear variable-path acoustic interferometer; for mass density: Pycnometric method

Cc1ccccc1N [2-methylaniline]
[1]
Details | mass density [kg/m3] | speed of sound [m/s]
303.15 K | 990.1 | 1579
313.15 K | 981.7 | 1539
323.15 K | 973.3 | 1501

Cc1ccccc1N [2-methylaniline] + C1CCOC1
[2]
Details | mass density, 303.15 K [kg/m3] | mass density, 313.15 K [kg/m3] | mass density, 323.15 K [kg/m3] | speed of sound, 303.15 K [m/s] | speed of sound, 313.15 K [m/s] | speed of sound, 323.15 K [m/s]
x2 = 0 | 990.1 | 981.7 | 973.3 | 1579 | 1539 | 1501
x2 = 0.0828 | 984 | 975.9 | 968 | 1559 | 1519 | 1482
x2 = 0.1818 | 977 | 969.2 | 961.5 | 1534 | 1493 | 1458
x2 = 0.2807 | 969.9 | 962.2 | 954.6 | 1508 | 1467 | 1431
x2 = 0.3704 | 962.6 | 954.9 | 947.3 | 1482 | 1442 | 1406
x2 = 0.4652 | 953.7 | 945.9 | 938.2 | 1455 | 1414 | 1377
x2 = 0.5732 | 941.7 | 933.8 | 925.9 | 1421 | 1379 | 1342
x2 = 0.6764 | 928.4 | 920.1 | 911.9 | 1382 | 1341 | 1305
x2 = 0.7791 | 913.3 | 904.7 | 896 | 1343 | 1301 | 1264
x2 = 0.888 | 895.8 | 886.4 | 877 | 1300 | 1255 | 1219

Cc1ccccc1N [2-methylaniline] + CC(C)OC(C)C
[2]
Details | mass density, 303.15 K [kg/m3] | mass density, 313.15 K [kg/m3] | mass density, 323.15 K [kg/m3] | speed of sound, 303.15 K [m/s] | speed of sound, 313.15 K [m/s] | speed of sound, 323.15 K [m/s]
x2 = 0 | 990.1 | 981.7 | 973.3 | 1579 | 1539 | 1501
x2 = 0.0717 | 968.9 | 962.3 | 955.7 | 1530 | 1491 | 1457
x2 = 0.1513 | 946.3 | 940.3 | 934.4 | 1475 | 1437 | 1404
x2 = 0.2389 | 922 | 916.1 | 910.4 | 1415 | 1378 | 1343
x2 = 0.3255 | 898.8 | 892.6 | 886.4 | 1359 | 1320 | 1284
x2 = 0.4206 | 873.5 | 866.9 | 860.2 | 1299 | 1259 | 1224
x2 = 0.5248 | 845.6 | 838.8 | 831.6 | 1237 | 1197 | 1160
x2 = 0.625 | 817.9 | 811 | 803.6 | 1180 | 1139 | 1103
x2 = 0.7415 | 784.9 | 777.6 | 770 | 1116 | 1074 | 1038
x2 = 0.866 | 749.3 | 741 | 732.8 | 1049 | 1007 | 968

Cc1cccc(N)c1 [3-methylaniline]
[1]
Details | mass density [kg/m3] | speed of sound [m/s]
303.15 K | 980.8 | 1567
313.15 K | 972.7 | 1533
323.15 K | 964.6 | 1492

Cc1cccc(N)c1 [3-methylaniline] + C1CCOC1
[2]
Details | mass density, 303.15 K [kg/m3] | mass density, 313.15 K [kg/m3] | mass density, 323.15 K [kg/m3] | speed of sound, 303.15 K [m/s] | speed of sound, 313.15 K [m/s] | speed of sound, 323.15 K [m/s]
x2 = 0 | 980.8 | 972.7 | 964.6 | 1567 | 1533 | 1492
x2 = 0.0864 | 975.3 | 968 | 960.1 | 1544 | 1513 | 1474
x2 = 0.1853 | 969.2 | 962.6 | 955 | 1522 | 1488 | 1451
x2 = 0.2831 | 963 | 956.4 | 948.9 | 1497 | 1463 | 1425
x2 = 0.3776 | 956.4 | 949.7 | 941.9 | 1472 | 1436 | 1398
x2 = 0.4693 | 949 | 942 | 933.9 | 1447 | 1409 | 1372
x2 = 0.5689 | 939.3 | 931.9 | 923.6 | 1416 | 1375 | 1339
x2 = 0.6803 | 926.2 | 918.4 | 909.8 | 1378 | 1338 | 1301
x2 = 0.7808 | 912.4 | 904.3 | 895.3 | 1341 | 1300 | 1261
x2 = 0.8886 | 895.6 | 886.8 | 877.2 | 1300 | 1255 | 1217

Cc1cccc(N)c1 [3-methylaniline] + CC(C)OC(C)C
[2]
Details | mass density, 303.15 K [kg/m3] | mass density, 313.15 K [kg/m3] | mass density, 323.15 K [kg/m3] | speed of sound, 303.15 K [m/s] | speed of sound, 313.15 K [m/s] | speed of sound, 323.15 K [m/s]
x2 = 0 | 980.8 | 972.7 | 964.6 | 1567 | 1533 | 1492
x2 = 0.0743 | 961 | 954.3 | 946.9 | 1515 | 1482 | 1443
x2 = 0.1546 | 939.9 | 934 | 927 | 1462 | 1429 | 1391
x2 = 0.2421 | 917.2 | 911.5 | 904.6 | 1404 | 1371 | 1334
x2 = 0.3279 | 894.6 | 888.9 | 881.9 | 1350 | 1315 | 1280
x2 = 0.4275 | 868 | 862.1 | 855 | 1289 | 1254 | 1218
x2 = 0.53 | 840 | 834 | 826.9 | 1230 | 1193 | 1158
x2 = 0.6285 | 812.7 | 806.4 | 799.4 | 1175 | 1138 | 1101
x2 = 0.7424 | 781.2 | 774.5 | 767 | 1113 | 1075 | 1036
x2 = 0.8651 | 747.8 | 740.1 | 731.6 | 1048 | 1007 | 966

CC(C)OC(C)C [diisopropyl ether]
[1]
Details | mass density | speed of sound [m/s]
303.15 K | 712.9 kg/m3 | 976
313.15 K | 702.5 kg/m3 and 702.9 kg/m3 | 932
323.15 K | 691.9 kg/m3 | 889

CC(C)OC(C)C [diisopropyl ether] + Cc1cccc(N)c1
[2], x1 = 1
Details | mass density [kg/m3] | speed of sound [m/s]
303.15 K | 712.9 | 976
313.15 K | 702.9 | 932
323.15 K | 691.9 | 889

CC(C)OC(C)C [diisopropyl ether] + Cc1ccccc1N
[2], x1 = 1
Details | mass density [kg/m3] | speed of sound [m/s]
303.15 K | 712.9 | 976
313.15 K | 702.5 | 932
323.15 K | 691.9 | 889

C1CCOC1 [tetrahydrofuran]
[1]
Details | mass density [kg/m3] | speed of sound [m/s]
303.15 K | 876.9 | 1254
313.15 K | 865.7 | 1207
323.15 K | 854.8 | 1165

C1CCOC1 [tetrahydrofuran] + Cc1cccc(N)c1
[2], x1 = 1
Details | mass density [kg/m3] | speed of sound [m/s]
303.15 K | 876.9 | 1254
313.15 K | 865.7 | 1207
323.15 K | 854.8 | 1165

C1CCOC1 [tetrahydrofuran] + Cc1ccccc1N
[2], x1 = 1
Details | mass density [kg/m3] | speed of sound [m/s]
303.15 K | 876.9 | 1254
313.15 K | 865.7 | 1207
323.15 K | 854.8 | 1165
